Values quoted from earlier work as cited in paper PMC2119397 (The Journal of Experimental Medicine, 1992).
Like-named read-outs stand apart in the source and are kept apart here.

Tested on: DR1

Sequence	DR1 binding (in words) (ref Sinigaglia, F., unpublished observation)	DR1 binding (in words)
NALYKMNAVAKAA [NNX 83-91]	DR1 binding	
PKYVKQNTLKLAT [HA 307-319]		DR1 binding
TT 830-843: DR1-binding synthetic peptide of tetanus toxoid (QYIKANSKFIGITE; UniProt P04958 830-843, looked up, fragment)		DRl-binding
